In brackets after ≈: the same amount, converted by molar mass. Where two headings read alike, the source gives them in different places.
How the values were obtained:
MTT assay = format: cell-based; settings: human, HEK-293 cells (normal reference cell line), HEK-293 (normal cells), read-out: IC50, cytotoxicity
Procedure: (§1) Therefore, the whole set of compounds were tested by using MTT assay in order to check their overall cytotoxic effect. The growth of cells was monitored after 24 and 48 h of incubation with the increased concentrations (1–100 µg/ml) of the thiosemicarbazide derivatives. […] This confirms that the compounds tested combine different mechanisms of anticancer activity, and DNA topoisomerase II inhibition is only one of them.
(§2) Cytotoxicity of the synthesised compounds were examined against a panel of the cancer cell lines, MCF-7 (estrogen-dependent human breast cancer cells), MDA-MB-231 (oestrogen-independent human breast cancer cells), SCC- 25 (squamous cell carcinoma of the tongue), FaDu (squamous cell carcinoma of the pharynx), A- 549 (human lung carcinoma), AGS (human gastric adenocarcinoma), LS-180, HT-29 (colon cancer cell lines), T98G (glioblastoma cells), A375 (melanoma cells). Human embryonic kidney (HEK-293) cells and human normal skin fibroblasts (CRL-2072) were used as reference cell lines. The investigated cell lines were obtained from American Type Culture Collection (ATCC; Manassas, VA, USA). A375, MCF-7, MDA-MB-231, T98G cells were cultured in Dulbecco’s Modified Eagle’s Medium (DMEM) (Sigma Aldrich, St. Louis, MO, USA) supplemented with 10% heat inactivated foetal bovine serum (FBS), penicillin (100 U/mL), and streptomycin (100 μg/mL). SCC-25 cells were cultured in 1:1 mixture of Dulbecco’s modified Eagle’s medium and Ham’s F12 Medium (Sigma Aldrich, St. Louis, MO, USA) supplemented with 400 ng/ml hydrocortisone, 10% FBS, penicillin (100 U/mL), and streptomycin (100 μg/mL). A549 and AGS cells were maintained in F-12K Medium (Sigma Aldrich, St. Louis, MO, USA). LS-180 and FaDu cells were cultured in Eagle’s Minimum Essential Medium. HT-29 cells were maintained in McCoy’s 5 A Medium (Sigma Aldrich, St. Louis, MO, USA) supplemented with 10%FBS, penicillin (100 U/mL), and streptomycin (100 μg/mL). All the cells were maintained at 37 °C in a humidified atmosphere of 5% CO2.
(§3) The synthesised compounds were dissolved in DMSO in order to obtain stock solutions. At the day of the experiment, the suspension of cells (1 × 10^5 cells/mL) in the respective medium was applied to a 96-well plate at 100 μL per well. […] The control cells were cultured only with a medium containing 2% FBS. Cytotoxicity of DMSO was also checked at concentrations present in respective dilutions of stock solution. After 24 h (or 48 h) of incubation, 15 μL of MTT working solution (5 mg/mL in PBS) was added to each well. The plate was incubated for 3 h. Subsequently, 100 μL of 10% SDS solution was added to each well. Cells were incubated overnight at 37 °C to dissolve the precipitated formazan crystals. The concentration of the dissolved formazan was evaluated by measuring the absorbance at λ = 570 nm, using a microplate reader (Epoch, BioTek Instruments, Inc., Winooski, VT, USA). At least two independent experiments were performed in triplicates. The results of the MTT assay were expressed as mean ± SD. […] IC50 values of the investigated derivatives and standards were calculated using the IC50 calculator.[23]

[1] = tested on: SCC-25 (squamous cell carcinoma of the tongue); assay: MTT assay; format: cell-based; settings: Homo sapiens, SCC-25, MTT, read-out: IC50, cytotoxicity
Procedure: as §1, §2, §3

[2] = tested on: AGS (human gastric adenocarcinoma); assay: MTT assay; format: cell-based; settings: read-out: IC50, cytotoxicity
Procedure: as §1, §2, §3

A375 (melanoma cells) = assay: MTT assay; format: cell-based; settings: Homo sapiens, read-out: IC50, cytotoxicity
Procedure: as §1, §2, §3

[3] = tested on: HT-29 (colon cancer cell line); assay: MTT assay; format: cell-based; settings: Homo sapiens, HT-29, MTT, read-out: IC50, cytotoxicity
Procedure: as §1, §2, §3

[4] = tested on: FaDu (squamous cell carcinoma of the pharynx); assay: MTT assay; format: cell-based; settings: Homo sapiens, read-out: IC50, cytotoxicity
Procedure: as §1, §2, §3

[5] = tested on: T98G (glioblastoma cells); assay: MTT assay; format: cell-based; settings: Homo sapiens, read-out: IC50, cytotoxicity
Procedure: as §1, §2, §3

[6] = tested on: LS180 (colon cancer cell line); assay: MTT assay; format: cell-based; settings: Homo sapiens, read-out: IC50, cytotoxicity
Procedure: as §1, §2, §3

[7] = tested on: MDA-MB-231 (estrogen-independent human breast cancer cells); assay: MTT assay; format: cell-based; settings: MDA-MB-231, MTT, read-out: IC50, cytotoxicity
Procedure: as §1, §2, §3

[8] = tested on: MCF-7 (estrogen-dependent human breast cancer cells); assay: MTT assay; format: cell-based; settings: MCF7, MCF-7, MTT, read-out: IC50, cytotoxicity
Procedure: as §1, §2, §3

[9] = tested on: A549 (human lung carcinoma); assay: MTT assay; format: cell-based; settings: read-out: IC50, cytotoxicity
Procedure: as §1, §2, §3

[10] = Solubility in culture media and buffers; format: physicochemical

melting point	Compound	IC50 at 24 h (MTT assay)	IC50 at 48 h (MTT assay)	IC50 ([1]; 24h)	IC50 ([1]; 48 h)	IC50 ([2]; 24h)	IC50 ([2]; 48 h)	IC50 (A375 (melanoma cells); A-375, 24h)	IC50 (A375 (melanoma cells); A-375, 48 h)	IC50 ([3]; 24h)	IC50 ([3]; 48 h)	IC50 ([4]; 24h)	IC50 ([4]; 48 h)	IC50 ([5]; 24h)	IC50 ([5]; 48h)	IC50 ([6]; 24h)	IC50 ([6]; 48 h)	IC50 ([7]; 24h)	IC50 ([7]; 48h)	IC50 ([8]; 24h)	other results
278 to 280 °C	O=C(NNC(=S)Nc1c(F)cccc1F)c1ccccc1[N+](=O)[O-] [Compound 4, 4-(2,6-Difluorophenyl)-1-(2-nitrobenzoyl)thiosemicarbazide]	> 100 µg/mL	> 100 µg/mL	> 100 µg/mL	40.9 µg/mL (≈ 116 µM)	> 100 µg/mL	63.9 µg/mL (≈ 181 µM)	> 100 µg/mL	14.8 µg/mL (≈ 42 µM)	25 µg/mL (≈ 71 µM)	> 100 µg/mL	> 100 µg/mL	39.2 µg/mL (≈ 111 µM)	55.5 µg/mL (≈ 157 µM)	7.26 µg/mL (≈ 20.6 µM)	> 100 µg/mL	55.6 µg/mL (≈ 158 µM)	> 100 µg/mL	32.5 µg/mL (≈ 92.2 µM)	> 100 µg/mL	IC50 ([8]; 48h): 19.4 µg/mL (≈ 55.1 µM); IC50 ([9]; 24h): > 100 µg/mL; IC50 ([9]; 48h): > 100 µg/mL
182 to 184 °C	O=C(NNC(=S)Nc1ccc(F)cc1F)c1ccccc1[N+](=O)[O-] [Compound 11, 4-(2,4-Difluorophenyl)-1-(2-nitrobenzoyl)thiosemicarbazide]																				solubility in culture media and buffers [10]: low solubility
174 to 176 °C	O=C(Cc1cccc2ccccc12)NNC(=S)NC(=O)c1ccccc1Cl [Compound 8, 4-(2-Chlorobenzoyl)-1-[(naphth-1-yl)acetyl]thiosemicarbazide]	> 100 µg/mL	23.4 µg/mL (≈ 58.9 µM)	> 100 µg/mL	29.5 µg/mL (≈ 74.1 µM)	> 100 µg/mL	> 100 µg/mL	> 100 µg/mL	9.45 µg/mL (≈ 23.8 µM)	> 100 µg/mL	14.8 µg/mL (≈ 37.1 µM)	> 100 µg/mL	12.8 µg/mL (≈ 32.2 µM)	97.2 µg/mL (≈ 244 µM)	11.8 µg/mL (≈ 29.7 µM)	> 100 µg/mL	41.1 µg/mL (≈ 103 µM)	> 100 µg/mL	17.2 µg/mL (≈ 43.3 µM)	> 100 µg/mL	IC50 ([8]; 48h): 12.7 µg/mL (≈ 32 µM); IC50 ([9]; 24h): > 100 µg/mL; IC50 ([9]; 48h): > 100 µg/mL
	O=C(NNC(=S)NC(=O)c1ccccc1Cl)c1ccc(O)c([N+](=O)[O-])c1 [Compound 7, 4-(2-Chlorobenzoyl)-1-(4-hydroxy-3-nitrobenzoyl)thiosemicarbazide]	67.2 µg/mL (≈ 170 µM)	32.7 µg/mL (≈ 82.8 µM)	42.4 µg/mL (≈ 107 µM)	24.3 µg/mL (≈ 61.6 µM)	> 100 µg/mL	18.8 µg/mL (≈ 47.5 µM)	> 100 µg/mL	13.9 µg/mL (≈ 35.2 µM)	47.4 µg/mL (≈ 120 µM)	7.18 µg/mL (≈ 18.2 µM)	33.5 µg/mL (≈ 84.9 µM)	22.5 µg/mL (≈ 56.9 µM)	11.4 µg/mL (≈ 29 µM)	10.7 µg/mL (≈ 27 µM)	> 100 µg/mL	24.7 µg/mL (≈ 62.5 µM)	> 100 µg/mL	69.4 µg/mL (≈ 176 µM)	> 100 µg/mL	IC50 ([8]; 48h): 24.8 µg/mL (≈ 62.9 µM); IC50 ([9]; 24h): > 100 µg/mL; IC50 ([9]; 48h): > 100 µg/mL
164 to 166 °C	O=C(Cc1cccc2ccccc12)NNC(=S)NC(=O)c1ccccc1 [Compound 9, 4-Benzoyl-1-[(naphth-1-yl)acetyl]thiosemicarbazide]	67 µg/mL (≈ 184 µM)	23 µg/mL (≈ 63.4 µM)	32.2 µg/mL (≈ 88.6 µM)	34.5 µg/mL (≈ 94.9 µM)	> 100 µg/mL	19.7 µg/mL (≈ 54.1 µM)	> 100 µg/mL	8.14 µg/mL (≈ 22.4 µM)	> 100 µg/mL	5.23 µg/mL (≈ 14.4 µM)	28.2 µg/mL (≈ 77.5 µM)	19.5 µg/mL (≈ 53.7 µM)	> 100 µg/mL	17.4 µg/mL (≈ 47.8 µM)	> 100 µg/mL	19.8 µg/mL (≈ 54.5 µM)	> 100 µg/mL	> 100 µg/mL	> 100 µg/mL	IC50 ([8]; 48h): 16.4 µg/mL (≈ 45 µM); IC50 ([9]; 24h): > 100 µg/mL; IC50 ([9]; 48h): > 100 µg/mL
	O=C(NC(=S)NNC(=O)c1ccccc1[N+](=O)[O-])c1ccc([N+](=O)[O-])cc1 [Compound 6, 1-(2-Nitrobenzoyl)-4-(4-nitrobenzoyl)thiosemicarbazide]	> 100 µg/mL	60.1 µg/mL (≈ 154 µM)	26 µg/mL (≈ 66.7 µM)	9.78 µg/mL (≈ 25.1 µM)	23.5 µg/mL (≈ 60.3 µM)	29.8 µg/mL (≈ 76.5 µM)	> 100 µg/mL	7.98 µg/mL (≈ 20.5 µM)	22.8 µg/mL (≈ 58.5 µM)	6.78 µg/mL (≈ 17.4 µM)	12.9 µg/mL (≈ 33.1 µM)	14.8 µg/mL (≈ 37.9 µM)	8.41 µg/mL (≈ 21.6 µM)	9.78 µg/mL (≈ 25.1 µM)	> 100 µg/mL	10.4 µg/mL (≈ 26.7 µM)	> 100 µg/mL	16.8 µg/mL (≈ 43.3 µM)	> 100 µg/mL	IC50 ([8]; 48h): 15.9 µg/mL (≈ 40.9 µM); IC50 ([9]; 24h): 20.8 µg/mL (≈ 53.3 µM); IC50 ([9]; 48h): 23.4 µg/mL (≈ 60.2 µM)
194 to 195 °C	Cc1cccc(C(=O)NC(=S)NNC(=O)c2ccccc2[N+](=O)[O-])c1 [Compound 5, 4-(3-Methylobenzoyl)-1-(2-nitrobenzoyl)thiosemicarbazide]	78.1 µg/mL (≈ 218 µM)	24.6 µg/mL (≈ 68.6 µM)	> 100 µg/mL	17.3 µg/mL (≈ 48.3 µM)	> 100 µg/mL	63.9 µg/mL (≈ 178 µM)	89.3 µg/mL (≈ 249 µM)	38.5 µg/mL (≈ 107 µM)	45.2 µg/mL (≈ 126 µM)	12.3 µg/mL (≈ 34.3 µM)	> 100 µg/mL	31.7 µg/mL (≈ 88.4 µM)	> 100 µg/mL	30.1 µg/mL (≈ 83.9 µM)	> 100 µg/mL	19.8 µg/mL (≈ 55.4 µM)	> 100 µg/mL	56.3 µg/mL (≈ 157 µM)	> 100 µg/mL	IC50 ([8]; 48h): 28.1 µg/mL (≈ 78.5 µM); IC50 ([9]; 24h): > 100 µg/mL; IC50 ([9]; 48h): > 100 µg/mL
190 to 192 °C	Cc1cccc(C(=O)NC(=S)NNC(=O)c2ccc(O)c([N+](=O)[O-])c2)c1 [Compound 12, 4-(3-Methylbenzoyl)-1-(4-hydroxy-3-nitrobenzoyl)thiosemicarbazide]																				solubility in culture media and buffers [10]: low solubility
186 to 188 °C	O=C(Cc1cccc2ccccc12)NNC(=S)Nc1c(F)cccc1F [Compound 10, 4-(2,6-Difluorophenyl)-1-[(naphth-1-yl)acetyl]thiosemicarbazide]	63.7 µg/mL (≈ 172 µM)	19.5 µg/mL (≈ 52.5 µM)	52.4 µg/mL (≈ 141 µM)	23.9 µg/mL (≈ 64.2 µM)	29.5 µg/mL (≈ 79.3 µM)	21.1 µg/mL (≈ 56.7 µM)	47.9 µg/mL (≈ 129 µM)	30.1 µg/mL (≈ 81.2 µM)	32.9 µg/mL (≈ 88.7 µM)	32.2 µg/mL (≈ 86.6 µM)	20.1 µg/mL (≈ 54.2 µM)	29.7 µg/mL (≈ 80.1 µM)	47.2 µg/mL (≈ 127 µM)	30.6 µg/mL (≈ 82.5 µM)	72.4 µg/mL (≈ 195 µM)	12.6 µg/mL (≈ 33.8 µM)	83.4 µg/mL (≈ 225 µM)	68.1 µg/mL (≈ 183 µM)	64.1 µg/mL (≈ 173 µM)	IC50 ([8]; 48h): 20.6 µg/mL (≈ 55.6 µM); IC50 ([9]; 24h): 92.6 µg/mL (≈ 249 µM); IC50 ([9]; 48h): 32.8 µg/mL (≈ 88.4 µM)
